For 24 compounds, EC50 results are on record in patent publication US20250179000A1 (Sanford Burnham Prebys Medical Discovery Institute, priority 2021, published 2025).

One experiment has as its target Human mGlu3 (Homo sapiens, UniProt Q14832). In words: mGlu receptor in vitro assay, human mGlu3. The format is cell-based. The procedure:
Human Embryonic Kidney (HEK-293) cell lines co-expressing rat mGlu receptors 2, 3, 4, 6, 7 or 8 and G protein-coupled inwardly-rectifying potassium (GIRK) channels were grown in Growth Media containing 45% DMEM, 45% F-12, 10% FBS, 20 mM HEPES, 2 mM L-glutamine, antibiotic/antimycotic, non-essential amino acids, 700 μg/mL G418, and 0.6 μg/ml puromycin at 37° C. in the presence of 5% CO2. […] All cell culture reagents were purchased from Invitrogen Corp. (Carlsbad, CA) unless otherwise noted. Calcium assays were used to assess activity of compounds at mGlu1 and mGlu5, as previously described in Engers et al (J. Med. Chem. 2009, 52, 4115-4118). Calcium assays at mGlu3 were performed as described for mGlu5 with the exception that TREx293 mGlu3 Gα15 cells were treated with tetracycline at 20 ng/mL for 20 h prior to assay.
Briefly, cells were plated into 384-well, black-walled, clear-bottomed poly-D-lysine-coated plates at a density of 15,000 cells/20 μL/well in DMEM containing 10% dialyzed FBS, 20 mM HEPES, and 100 units/mL penicillin/streptomycin (assay media). Plated cells were incubated overnight at 37° C. in the presence of 5% CO2. The following day, the medium was exchanged from the cells to assay buffer [Hanks' balanced salt solution (Invitrogen) containing 20 mM HEPES, pH 7.3] using an ELX405 microplate washer (BioTek), leaving 20 μL/well, followed by the addition of 20 μL/well FluoZin2-AM (330 nM final concentration) indicator dye (Invitrogen; prepared as a stock in DMSO and mixed in a 1:1 ratio with Pluronic acid F-127) in assay buffer. Cells were incubated for 1 h at room temperature, and the dye exchanged to assay buffer using an ELX405, leaving 20 μL/well. Test compounds were diluted to 2 times their final desired concentration in assay buffer (0.3% DMSO final concentration). Agonists were diluted in thallium buffer [125 mM sodium bicarbonate (added fresh the morning of the experiment), 1 mM magnesium sulfate, 1.8 mM calcium sulfate, 5 mM glucose, 12 mM thallium sulfate, and 10 mM HEPES, pH 7.3] at 5 times the final concentration to be assayed. Cell plates and compound plates were loaded onto a kinetic imaging plate reader (FDSS 6000 or 7000; Hamamatsu Corporation, Bridgewater, NJ). Appropriate baseline readings were taken (10 images at 1 Hz; excitation, 470±20 nm; emission, 540±30 nm) and test compounds were added in a 20 μL volume and incubated for approximately 2.5 min before the addition of 10 μL of thallium buffer with or without agonist. After the addition of agonist, data were collected for approximately an additional 2.5 min. Data were analyzed using Excel (Microsoft Corp, Redmond, WA). The slope of the fluorescence increase beginning 5 s after thallium/agonist addition and ending 15 s after thallium/agonist addition was calculated, corrected to vehicle and maximal agonist control slope values, and plotted in using either XLfit (ID Business Solutions Ltd) or Prism software (GraphPad Software, San Diego, CA) to generate concentration-response curves. Potencies were calculated from fits using a four-point parameter logistic equation. For concentration-response curve experiments, compounds were serially diluted 1:3 into 10-point concentration response curves and were transferred to daughter plates using an Echo acoustic plate reformatter (Labcyte, Sunnyvale, CA). Test compounds were applied and followed by EC20 concentrations of glutamate.

A further experiment deals with Human mGlu2 (Homo sapiens, UniProt Q14416). In words: mGlu receptor in vitro assay, human mGlu2. The experiment is classed as cell-based.
Chain of Human mGlu2 (Q14416 19-872): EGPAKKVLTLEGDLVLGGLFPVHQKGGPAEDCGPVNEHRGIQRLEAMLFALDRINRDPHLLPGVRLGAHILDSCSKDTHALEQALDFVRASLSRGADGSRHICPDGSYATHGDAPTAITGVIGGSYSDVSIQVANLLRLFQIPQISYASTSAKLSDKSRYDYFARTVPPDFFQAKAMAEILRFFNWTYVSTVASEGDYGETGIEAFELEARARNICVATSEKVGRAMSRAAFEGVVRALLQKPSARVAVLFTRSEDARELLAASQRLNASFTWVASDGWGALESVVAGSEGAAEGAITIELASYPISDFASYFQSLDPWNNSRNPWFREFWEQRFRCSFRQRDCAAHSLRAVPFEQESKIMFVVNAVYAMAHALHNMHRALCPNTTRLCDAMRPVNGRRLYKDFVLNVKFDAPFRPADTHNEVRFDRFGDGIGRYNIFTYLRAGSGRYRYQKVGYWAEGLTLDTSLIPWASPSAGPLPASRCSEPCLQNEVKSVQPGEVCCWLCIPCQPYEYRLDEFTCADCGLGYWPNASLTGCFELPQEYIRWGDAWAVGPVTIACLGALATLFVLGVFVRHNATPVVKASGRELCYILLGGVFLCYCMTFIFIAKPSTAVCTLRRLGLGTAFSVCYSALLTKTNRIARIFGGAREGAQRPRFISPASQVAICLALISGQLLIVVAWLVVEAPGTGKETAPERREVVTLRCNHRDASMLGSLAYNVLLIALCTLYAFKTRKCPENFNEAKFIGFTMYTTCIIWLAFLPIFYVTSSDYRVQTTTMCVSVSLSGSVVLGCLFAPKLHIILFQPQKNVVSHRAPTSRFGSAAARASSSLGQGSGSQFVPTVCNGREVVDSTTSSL

Chain of Human mGlu3 (Q14832 23-879): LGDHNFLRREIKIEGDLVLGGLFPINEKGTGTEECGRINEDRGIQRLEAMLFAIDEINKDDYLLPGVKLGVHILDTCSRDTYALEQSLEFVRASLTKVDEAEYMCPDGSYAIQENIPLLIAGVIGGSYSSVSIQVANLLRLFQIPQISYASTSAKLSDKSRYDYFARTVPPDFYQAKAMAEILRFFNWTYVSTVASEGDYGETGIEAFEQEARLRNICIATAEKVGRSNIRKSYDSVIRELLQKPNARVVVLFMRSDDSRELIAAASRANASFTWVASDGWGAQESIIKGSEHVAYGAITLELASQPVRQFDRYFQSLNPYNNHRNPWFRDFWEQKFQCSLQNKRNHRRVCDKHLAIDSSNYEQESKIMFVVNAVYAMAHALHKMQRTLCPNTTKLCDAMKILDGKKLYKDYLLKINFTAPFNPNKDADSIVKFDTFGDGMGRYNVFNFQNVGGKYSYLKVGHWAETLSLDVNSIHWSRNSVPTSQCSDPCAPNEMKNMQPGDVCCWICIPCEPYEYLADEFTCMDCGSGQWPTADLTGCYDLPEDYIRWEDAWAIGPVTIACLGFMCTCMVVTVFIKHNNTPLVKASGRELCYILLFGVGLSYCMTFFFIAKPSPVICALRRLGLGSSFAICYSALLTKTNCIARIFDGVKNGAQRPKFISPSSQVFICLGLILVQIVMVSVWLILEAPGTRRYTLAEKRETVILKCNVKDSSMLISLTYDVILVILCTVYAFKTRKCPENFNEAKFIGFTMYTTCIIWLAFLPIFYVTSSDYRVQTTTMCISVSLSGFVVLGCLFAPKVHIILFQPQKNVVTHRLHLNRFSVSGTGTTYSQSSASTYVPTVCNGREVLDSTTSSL

As to `Cc1c(OCCCCSc2cccc(C(=O)O)c2)ccc(C(=O)CC(C)(C)C)c1O` [compound 80, 3-((4-(4-(3,3-Dimethylbutanoyl)-3-hydroxy-2-methylphenoxy)butyl)thio)benzoic acid], the EC50 on Human mGlu3 was 0.461 µM; at Human mGlu2 it was 0.228 µM.
With `COc1c(C(=O)O)cccc1-c1ccc(COc2ccc(C(=O)CC(C)(C)C)c(O)c2C)nn1` [compound 154, 3-(6-((4-(3,3-Dimethylbutanoyl)-3-hydroxy-2-methylphenoxy)methyl)pyridazin-3-yl)-2-methoxybenzoic acid], the EC50 stood at 0.184 µM at Human mGlu3 and 0.281 µM on Human mGlu2.
Regarding `Cc1c(OCc2cnc(-c3cncc(C(=O)O)c3)cn2)ccc(C(=O)CC(C)(C)C)c1O` [compound 148, 5-(5-((4-(3,3-Dimethylbutanoyl)-3-hydroxy-2-methylphenoxy)methyl)pyrazin-2-yl)nicotinic acid], the 50% effective concentration (EC50) is over 30 µM at Human mGlu3 and over 10 µM on Human mGlu2.
For the compound `Cc1c(OCc2cnc(-c3cccc(O)c3)cn2)ccc(C(=O)CC(C)(C)C)c1O` [compound 145, 1-(2-Hydroxy-4-{[5-(3-hydroxyphenyl)pyrazin-2-yl]methoxy}-3-methylphenyl)-3,3-dimethylbutan-1-one], the concentration for a half-maximal effect (EC50) at Human mGlu3 and at Human mGlu2 was over 10 µM throughout.
Regarding `Cc1c(OCc2cnc(-c3ccc(Cl)c(C(=O)O)c3)cn2)ccc(C(=O)CC(C)(C)C)c1O` [compound 138, 2-Chloro-5-(5-((4-(3,3-Dimethylbutanoyl)-3-hydroxy-2-methylphenoxy)methyl)pyrazin-2-yl)benzoic acid], the EC50 at Human mGlu3 was 0.104 µM; at Human mGlu2, 0.445 µM.
As to `COc1c(C(=O)O)cccc1-c1noc(COc2ccc(C(=O)CC(C)(C)C)c(O)c2C)n1` [compound 158, 3-(5-((4-(3,3-Dimethylbutanoyl)-3-hydroxy-2-methylphenoxy)methyl)-1,2,4-oxadiazol-3-yl)-2-methoxybenzoic acid], the EC50 at Human mGlu3 was determined as 0.104 µM; on Human mGlu2, 0.053 µM.
Regarding `Cc1c(OCc2nnc(-c3cccc(C(=O)O)c3)o2)ccc(C(=O)CC(C)(C)C)c1O` [compound 134, 3-(5-((4-(3,3-Dimethylbutanoyl)-3-hydroxy-2-methylphenoxy)methyl)-1,3,4-oxadiazol-2-yl)benzoic acid], the EC50 came to 0.327 µM at Human mGlu3 and 0.243 µM on Human mGlu2.
On the same counts, the results for `COc1ccc(C(=O)O)cc1-c1noc(COc2ccc(C(=O)CC(C)(C)C)c(O)c2C)n1` [compound 156, 3-(5-((4-(3,3-Dimethylbutanoyl)-3-hydroxy-2-methylphenoxy)methyl)-1,2,4-oxadiazol-3-yl)-4-methoxybenzoic acid] are 0.117 µM and 0.078 µM.
As for `COc1ccc(C(=O)O)c(-c2cnc(COc3ccc(C#CCOCC(O)CO)c(C)c3C)cn2)c1` (stereo not drawn) [compound 151], the EC50 at Human mGlu3 and at Human mGlu2 was over 30 µM in each case.
As to `Cc1c(SCCCCSc2cccc(C(=O)O)c2)ccc(C(=O)CC(C)(C)C)c1O` [compound 82, 3-{4-[4-(3,3-Dimethylbutanoyl)-3-hydroxy-2-methylphenylthio]butylthio}benzoic acid], the values for the EC50 at Human mGlu3 and on Human mGlu2 were 3 µM and 0.423 µM, respectively.
On the same counts, the results for `Cc1c(OCc2cnc(-c3ccc(C(=O)O)s3)cn2)ccc(C(=O)CC(C)(C)C)c1O` [compound 141, 5-(5-((4-(3,3-Dimethylbutanoyl)-3-hydroxy-2-methylphenoxy)methyl)pyrazin-2-yl)thiophene-2-carboxylic acid] are 0.603 µM and 0.547 µM.
Regarding `COc1cc(C(=O)O)cc(-c2cnc(COc3ccc(C(=O)CC(C)(C)C)c(O)c3C)cn2)c1` [compound 129, 3-(5-((4-(3,3-Dimethylbutanoyl)-3-hydroxy-2-methylphenoxy)methyl)pyrazin-2-yl)-5-methoxybenzoic acid], the results for the EC50 on Human mGlu3 and at Human mGlu2 were 0.364 µM and 0.729 µM, respectively.
On the same counts, the results for `COc1c(C(=O)O)cccc1-c1cnc(COc2ccc(C(=O)C3CC3)c(O)c2C)cn1` [compound 78, 3-(5-((4-(Cyclopropanecarbonyl)-3-hydroxy-2-methylphenoxy)methyl)pyrazin-2-yl)-2-methoxybenzoic acid] are 1.93 µM and 0.041 µM.
Turning to `Cc1c(OCc2cnc(-c3cc(F)cc(C(=O)O)c3)cn2)ccc(C(=O)CC(C)(C)C)c1O` [compound 139, 3-(5-((4-(3,3-Dimethylbutanoyl)-3-hydroxy-2-methylphenoxy)methyl)pyrazin-2-yl)-5-fluorobenzoic acid], the 50% effective concentration (EC50) on Human mGlu3 is 1.08 µM; on Human mGlu2 it was 1.75 µM.
As to `Cc1c(OCc2cccc(-c3cccc(C(=O)O)c3)c2)ccc(C(=O)c2ccc(F)cc2)c1O` [compound 74, 3′-((4-(4-Fluorobenzoyl)-3-hydroxy-2-methylphenoxy)methyl)-[1,1′-biphenyl]-3-carboxylic acid], the EC50 at Human mGlu3 was determined as 1.65 µM; on Human mGlu2, 0.924 µM.
As to `COc1ccc(C(=O)c2ccc(OCCCCOc3cc(C(=O)O)ccc3OC)c(C)c2O)cc1` [compound 63, 3-(4-(3-Hydroxy-4-(4-methoxybenzoyl)-2-methylphenoxy)butoxy)-4-methoxybenzoic acid], the half-maximal effective concentration (EC50) on Human mGlu3 was 0.557 µM; on Human mGlu2 it was 0.507 µM.
On to `Cc1c(OCc2cnc(-c3ccc(C(=O)O)c(F)c3)cn2)ccc(C(=O)CC(C)(C)C)c1O` [compound 137, 4-(5-((4-(3,3-Dimethylbutanoyl)-3-hydroxy-2-methylphenoxy)methyl)pyrazin-2-yl)-2-fluorobenzoic acid], for which the EC50 at Human mGlu3 stood at 3.95 µM; on Human mGlu2, 0.913 µM.
For `Cc1cc(C(=O)O)ccc1-c1cnc(COc2ccc(C(=O)CC(C)(C)C)c(O)c2C)cn1` [compound 144, 4-(5-{[4-(3,3-Dimethylbutanoyl)-3-hydroxy-2-methylphenoxy]methyl}pyrazin-2-yl)-3-methylbenzoic acid], the figures for the EC50 on Human mGlu3 and at Human mGlu2 were 0.089 µM and 0.112 µM, respectively.
On the same counts, the results for `Cc1c(OCc2nc(-c3cccc(C(=O)O)c3)no2)ccc(C(=O)C2CC2)c1O` [compound 77, 3-(5-((4-(Cyclopropanecarbonyl)-3-hydroxy-2-methylphenoxy)methyl)-1,2,4-oxadiazol-3-yl)benzoic acid] are over 10 µM and 0.119 µM.
The like results for `COc1ccc(C(=O)O)cc1OCCCCOc1ccc(C(=O)c2ccc(C(C)(C)C)cc2)c(O)c1C` [compound 76, 3-[4-(4-{[4-(tert-Butyl)phenyl]carbonyl}-3-hydroxy-2-methylphenoxy)butoxy]-4-methoxybenzoic acid] were, in that order, over 10 µM and over 10 µM.
With `COc1ccc(C(=O)O)cc1OCCCCOc1ccc(C(=O)CC(C)(C)C)c(O)c1-c1ccccc1` [compound 131, 3-(4-((5-(3,3-Dimethylbutanoyl)-6-hydroxy-[1,1′-biphenyl]-2-yl)oxy)butoxy)-4-methoxybenzoic acid], the EC50 at Human mGlu3 is 1.05 µM; at Human mGlu2, 0.231 µM.
`COc1ccc(C(=O)O)cc1OCCCCCCCCOc1ccc(C(=O)CC(C)(C)C)c(O)c1C` [Example 18, 3-{8-[4-(3,3-Dimethylbutanoyl)-3-hydroxy-2-methylphenoxy]octyloxy}-4-methoxybenzoic acid]: the EC50 was over 10 µM on Human mGlu3 and 0.882 µM on Human mGlu2.
As to `Cc1c(OCc2cnc(-c3ccc(C(=O)O)cc3Cl)cn2)ccc(C(=O)CC(C)(C)C)c1O` [compound 143, 3-Chloro-4-(5-((4-(3,3-Dimethylbutanoyl)-3-hydroxy-2-methylphenoxy)methyl)pyrazin-2-yl)benzoic acid], the EC50 on Human mGlu3 stood at 0.58 µM; on Human mGlu2 it was 0.291 µM.
In the case of `COc1ccccc1C(=O)c1ccc(OCc2cnc(-c3cccc(C(=O)O)c3)cn2)c(C)c1O` [compound 73, 3-(5-((3-Hydroxy-4-(2-methoxybenzoyl)-2-methylphenoxy)methyl)pyrazin-2-yl)benzoic acid], the EC50 on Human mGlu3 was 0.685 µM; at Human mGlu2, 2.03 µM.
